From patent US20180298024A1, “CORTISTATIN ANALOGS AND USES THEREOF” (President and Fellows of Harvard College, priority 2015, published 2018)
Where “and” joins values, the source holds several entries; their conditions need not be identical. Equal entries are not always repeated.

How the values were obtained:
[1] = biological target: T1, CDK8 (Homo sapiens, UniProt P49336); experiment: Western blot study of CDK8 inhibition; assay type: cell-based; conditions: decreased staining results from inhibition of the target
Method: CDK8 inhibition in cells as measured by inhibition of Interferon-gamma (IFNγ)-stimulated STAT1-S727 phosphorylation. The compounds were provided as 200 μl of 1×10^−03 M/100% stock solutions in vials. The vials arrived in good condition and 2×100 μl each of the stock solutions were transferred into wells A2 to H2 of a 96 well “master plate” (barcoded “11273-UNH-01”), according to Table 12.
The dose response curves presented above were corroborated with western blot studies.

[2] = biological target: hERG (human ether-à-go-go-related gene) potassium channel (Homo sapiens, UniProt Q12809); experiment: cell-based; conditions: for IC50: hERG IC50, QPatch HT, room temperature
Method: (§1) The in vitro effects of compounds A, B, C, D, E, and F on the hERG (human ether-à-go-go-related gene) potassium channel current (a surrogate for IKr, the rapidly activating, delayed rectifier cardiac potassium current) expressed in mammalian cells were evaluated at room temperature using the QPatch HT (Sophion Bioscience A/S, Denmark), an automatic parallel patch clamp system. The test articles were evaluated at 1 μM, 3 μM, […] and 30 μM. Each test article concentration was tested in at least three cells. The duration of exposure to each test article concentration was a minimum of 3 minutes.

[3] = biological target: hERG potassium channel (Homo sapiens, UniProt Q12809); experiment: in vitro; conditions: human
Method: as §1

[4] = biological target: T1, CDK8; experiment: CDK8 Kd and residence time; assay type: binding
[5] = TurboSol solubility evaluation in physiological saline; assay type: physicochemical; conditions: HB-PS+0.3% DMSO
[6] = system: off-targets (Panlabs); experiment: Panlab off-target assay panel; assay type: binding; conditions: 10 μM; for number of targets with ≥75% inhibition: Safety Panel = 28 binding assays (Eurofins Panlabs)
Method: (§2) Compounds A, B, C, and D were tested in Panlab assays to evaluate potential off-target activity using standard assay kits. Methods employed in these studies have been adapted from the scientific literature to maximize reliability and reproducibility. Reference standards were run as an integral part of each assay to ensure the validity of the results obtained.
IC50 values were determined by a non-linear, least squares regression analysis using MathIQ™ (ID Business Solutions Ltd., UK). Where inhibition constants (Ki) are presented, the Ki values were calculated using the equation of Cheng and Prusoff (Cheng, Y., Prusoff, W. H., Biochem. Pharmacol. 22:3099-3108, 1973) using the observed IC50 of the tested compound, the concentration of radioligand employed in the assay, and the historical values for the KD of the ligand (obtained experimentally at Eurofins Panlabs, Inc.). Where presented, the Hill coefficient (nH), defining the slope of the competitive binding curve, was calculated using MathIQ™.

[7] = Tolerability study of Compound A and Compound D (body weight); assay type: in vivo, female NSG mice; conditions: for initial loss in weight: 10 mg/kg dosing group (Compound A PO, Compound D IV), recovered after dosing holiday; for tolerability: doses at or below 3 mg/kg (Compound A PO, Compound D IV)
Method: Twenty-five female NSG mice were randomly assigned to various treatment groups as described in Table 11. All mice were treated for 7 days unless as indicated below.
On study days zero to six (seven doses), Compound A was administered via oral gavage in a volume of 10 mL/kg and Compound D was administered via intravenous injection into the lateral tail vein in a volume of 10 mL/kg. Body weights were recorded daily for fifteen days (days zero to fourteen) and animal health was assessed daily.
Mice were monitored clinically for signs of morbidity and for body weights daily. Mice showing signs of morbidity were euthanized as per study guidelines.

[8] = system: MKPL1; experiment: Half-maximal growth inhibition (GI50), MKPL1; assay type: cell-based; conditions: Homo sapiens, 240 h, AML, M7, read-out: GI50 (nM), day 10
Method: Compounds A, B, C, D, and F were tested against various cell lines to probe their broad utility against cancer. Cortistatin A (CA) was also tested against the cell lines in a head to head fashion.

[9] = system: sodium channel; experiment: Panlab sodium channel assay; assay type: binding; conditions: 10 μM
Method: as §2
Compound B was tested in a subset of 30 Panlab assays that included the hits from screening Compound F in addition to the Panlab hERG and sodium channel assay. This allows direct comparison of Compound B to Compound F in terms of off-target profile.

[10] = Individual Data Points (% Inhibition), hERG

T1 sequence (P49336 whole entry): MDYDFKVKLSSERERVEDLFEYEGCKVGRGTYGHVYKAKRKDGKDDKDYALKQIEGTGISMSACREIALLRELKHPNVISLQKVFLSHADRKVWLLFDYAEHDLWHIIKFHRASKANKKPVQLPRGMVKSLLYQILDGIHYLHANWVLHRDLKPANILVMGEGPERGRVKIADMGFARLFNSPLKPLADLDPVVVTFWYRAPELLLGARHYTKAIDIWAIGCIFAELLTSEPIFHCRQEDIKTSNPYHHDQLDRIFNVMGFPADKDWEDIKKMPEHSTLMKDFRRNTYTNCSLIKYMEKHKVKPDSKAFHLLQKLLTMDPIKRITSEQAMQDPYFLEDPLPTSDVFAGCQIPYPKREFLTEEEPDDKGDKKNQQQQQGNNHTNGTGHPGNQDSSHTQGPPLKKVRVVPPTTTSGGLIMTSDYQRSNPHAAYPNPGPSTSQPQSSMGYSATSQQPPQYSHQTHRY
T1 sequence (P24863 whole entry partner): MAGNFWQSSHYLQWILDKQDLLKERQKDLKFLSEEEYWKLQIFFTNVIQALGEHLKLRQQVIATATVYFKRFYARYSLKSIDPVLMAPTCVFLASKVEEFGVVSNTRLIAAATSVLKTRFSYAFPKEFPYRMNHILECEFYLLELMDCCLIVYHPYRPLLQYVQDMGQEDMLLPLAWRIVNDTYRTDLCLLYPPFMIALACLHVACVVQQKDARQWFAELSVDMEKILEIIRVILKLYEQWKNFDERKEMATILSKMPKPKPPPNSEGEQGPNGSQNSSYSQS
Sequence of hERG potassium channel (Q12809 whole entry): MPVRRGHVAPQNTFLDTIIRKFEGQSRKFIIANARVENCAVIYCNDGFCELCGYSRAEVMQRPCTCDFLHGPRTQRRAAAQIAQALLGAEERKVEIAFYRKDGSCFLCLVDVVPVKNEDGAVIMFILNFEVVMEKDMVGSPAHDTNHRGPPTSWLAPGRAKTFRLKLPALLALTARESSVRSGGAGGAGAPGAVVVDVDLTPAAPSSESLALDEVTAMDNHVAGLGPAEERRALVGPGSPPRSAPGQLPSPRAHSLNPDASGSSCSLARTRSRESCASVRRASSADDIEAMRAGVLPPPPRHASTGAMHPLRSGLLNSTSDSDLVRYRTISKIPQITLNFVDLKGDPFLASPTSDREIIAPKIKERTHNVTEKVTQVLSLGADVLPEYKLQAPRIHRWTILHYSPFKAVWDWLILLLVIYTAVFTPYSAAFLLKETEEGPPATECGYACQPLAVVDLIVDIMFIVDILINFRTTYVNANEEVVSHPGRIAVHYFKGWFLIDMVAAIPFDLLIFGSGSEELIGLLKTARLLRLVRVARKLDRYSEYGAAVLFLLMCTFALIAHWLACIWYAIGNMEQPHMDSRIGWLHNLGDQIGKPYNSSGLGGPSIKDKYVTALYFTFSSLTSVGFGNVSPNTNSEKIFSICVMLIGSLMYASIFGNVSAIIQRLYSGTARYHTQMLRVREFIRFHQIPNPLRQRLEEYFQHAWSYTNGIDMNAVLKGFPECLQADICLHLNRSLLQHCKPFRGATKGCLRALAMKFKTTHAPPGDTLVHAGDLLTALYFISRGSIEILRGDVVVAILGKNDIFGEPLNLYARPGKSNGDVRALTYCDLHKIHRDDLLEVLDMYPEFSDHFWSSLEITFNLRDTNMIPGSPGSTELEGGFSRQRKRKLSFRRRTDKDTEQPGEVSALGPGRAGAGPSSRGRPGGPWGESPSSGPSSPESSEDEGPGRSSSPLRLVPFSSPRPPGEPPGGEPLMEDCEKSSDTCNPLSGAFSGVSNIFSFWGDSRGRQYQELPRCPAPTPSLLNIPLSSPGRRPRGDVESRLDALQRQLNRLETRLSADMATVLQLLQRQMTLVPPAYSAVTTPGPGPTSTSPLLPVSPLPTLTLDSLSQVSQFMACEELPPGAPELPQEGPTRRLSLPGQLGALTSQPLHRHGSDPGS
Sequence of hERG (human ether-à-go-go-related gene) potassium channel (Q12809 whole entry): as above

Row | Compound | inhibition of CDK8 in Western blot [1] | IC50 [2] | inhibition at 10 µM [3, 10] [%] | inhibition at 1 µM ([3]; Mean % hERG Inhibition) [%] | inhibition at 3 µM ([3]; Mean % hERG Inhibition) [%] | inhibition at 10 µM ([3]; Mean % hERG Inhibition) [%] | inhibition at 30 µM ([3]; Mean % hERG Inhibition) [%] | Kd [4] [µM] | Average LSU (×1000) ([5]; 1 μM) | Average LSU (×1000) ([5]; 3 μM) | Average LSU (×1000) ([5]; 10 μM) | Average LSU (×1000) ([5]; 30 μM) | solubility in the TurboSol assay [5] | number of targets with ≥75% inhibition [6] | initial loss in weight [7] | tolerability [7] | fold less hERG activity than Compound E ([2]; human) | inhibition at 3 µM [3, 10] [%] | inhibition at 30 µM [3, 10] [%] | % inhibition, Panlab sodium channel assay [9] [%] | other results
1 | C[C@]12CC=C3C=C4CC[C@@H](O)C[C@]45CC[C@]3(O5)[C@@H]1CC[C@@H]2c1ccc2ccncc2c1 [Compound A, (3S,3aR,9R,10aR,12aS,12bR)-3-(isoquinolin-7-yl)-3a-methyl-1,2,3,3a,4,7,8,9,10,11,12,12b-dodecahydro-10a,12a-epoxybenzo[4,5]cyclohepta[1,2-e]inden-9-ol] | dose dependent response | > 30 µM | 17.6 | 4 | 9 | 19.6 | 43.7 | 0.00023 ± 2e-05 | 5.8 LSU (×1000) | 5.1 LSU (×1000) | 9.0 LSU (×1000) | 41.0 LSU (×1000) | slightly insoluble at concentrations of 10 μM and 30 μM | 0 | approximately 15% | well tolerated |  |  |  |  | Mean % hERG Inhibition ([2]; human, 3 µM): 9.2%; residence time [4]: 447 min; number of targets with greater than 50% inhibition ([6]; over 100 Panlab assays): 8
2 | C[C@]12CC=C3C=C4CC[C@@H](N5CC[C@@H](N)C5)C[C@]45CC[C@]3(O5)[C@@H]1CC[C@@H]2c1ccc2ccncc2c1 [Compound B] | dose dependent response | 10.7 µM |  | 4.1 | 18.9 | 44.5 | 82.7 | 0.00019 ± 5e-05 | 2.2 LSU (×1000) | 3.2 LSU (×1000) | 4.5 LSU (×1000) | 8.6 LSU (×1000) | slightly insoluble at 30 μM concentrations | 8 |  |  | 10-100 fold | 17.1 | 89.4 | 65 | inhibition at 1 µM [3, 10]: 5.4%; GI50 [8]: 2 nM; number of targets with greater than 50% inhibition ([6]; subset of 30 Panlab assays): 8
3 | C[C@]12CC=C3C=C4CC[C@@H](N5CC(N)C5)C[C@]45CC[C@]3(O5)[C@@H]1CC[C@@H]2c1ccc2ccncc2c1 [Compound C] | dose dependent response | 10.9 µM | 45.8 | 5.8 | 17.1 | 49.8 | 75.5 | 0.00022 ± 3e-05 | 2.8 LSU (×1000) | 3.5 LSU (×1000) | 4.9 LSU (×1000) | 13.0 LSU (×1000) | slightly insoluble at 30 μM concentrations | 4 |  |  |  | 12.7 | 66.9 | 66 | number of targets with greater than 75% inhibition ([6]; subset of 30 Panlab assays): 4
4 | C[C@]12CC=C3C=C4CC[C@@H](N5C[C@H](O)[C@@H](O)C5)C[C@]45CC[C@]3(O5)[C@@H]1CC[C@@H]2c1ccc2ccncc2c1 [Compound D] | dose dependent response | 6.28 µM and 6.3 µM | 71.6 | 8 | 27.3 | 63.9 | 91.3 | 0.0002 ± 2e-05 | 4.7 LSU (×1000) | 6.4 LSU (×1000) | 7.0 LSU (×1000) | 16.6 LSU (×1000) | slightly insoluble at 30 μM concentrations | 3 | approximately 20% | well tolerated | 10-100 fold | 25.1 | 97.9 | 65 | activity in the hERG assay [2]: single digit micromolar activity; inhibition at 1 µM [3, 10]: 11.5%; GI50 [8]: 1.5 nM; number of targets with greater than 75% inhibition ([6]; subset of 30 Panlab assays): 3
